Results: patent US20260294890A1, “LONG-TERM PREVENTION AND/OR TREATMENT OF A DISEASE BY SLO-1 INHIBITORS” (Elanco Animal Health GmbH, priority 2023, published 2026)

Assays:
[1] = Assay 1: half-life and plasma clearance upon intravenous administration to beagle dogs; type: in vivo; conditions: iv dose up to 0.3 mg/kg, Phoenix PK/PD (Example 1: internal tool); for clearance / half-life: dog, geometric mean; for half-life: read-out: Half-life (h/Form) iv, geometric mean (converted)
Protocol: Assay 1: Determination of Half-Life and Plasma Clearance of Compounds of the Invention Upon Administration to Beagle Dogs
Compounds according to the invention were administered as an intravenous (iv) dose (up to 0.3 mg/kg) to beagle dogs (minimum n=3). Blood samples were collected from these beagle dogs up to 168 h after intravenous administration and up to 3024 h after subcutaneous administration. A portion of each whole blood sample was processed to plasma. Compound concentrations were determined in plasma using LCMS/MS. Phoenix™ Pharmacokinetic and Pharmacodynamic (PK/PD) was used to determine half-life and plasma clearance values. Only for Example 1, an internal tool available to the inventors was used to determine the half-life and plasma clearance values.

Dirofilaria immitis [2] = assay: Assay 2: prevention test, Dirofilaria immitis heartworm infection in dogs (modified Knott and heartworm antigen tests)
Dirofilaria immitis [3] = assay: Assay 2: residual protection test, second Dirofilaria immitis infection of dogs 90 days after treatment
Ancylostoma caninum [4] = assay: Assay 3: treatment of an existing hookworm infection in dogs (cohort A); type: in vivo; conditions: 30 mg/kg subcutaneous 15 days after infection
Protocol: (§1) 12 dogs were allocated to one of six groups in three cohorts. Each cohort comprised a negative control group (n=2) (‘Control group’) and a group (n=2) treated with the compound of Example 9 (‘Treatment group’).
(§2) Dogs in negative control groups were administered an equivalent volume of vehicle solution.
(§3) All dogs were infected with 100-300 hookworm (Ancylostoma caninum) 3rd-stage larvae (L3s) via oral gavage (W.A.A.V.P. Guidelines, First edition; Jacobs, D. E., A. Arakawa, C. H. Courtney, et al., 1994. Vet. Parasitol. 52: 179-202). The cohorts were treated as follows: • Cohort A: The compound of Example 9 or the vehicle solution was administered 15 days after infection with Ancylostoma caninum • Cohort B: The compound of Example 9 or the vehicle solution was administered 30 days prior to infection with Ancylostoma caninum • Cohort C: The compound of Example 9 or the vehicle solution was administered 60 days prior to infection with Ancylostoma caninum
(§4) Fecal egg counts (FECs, eggs per gram of feces) were obtained from each dog 15, 20, 25 and 30 days after hookworm infection.
(§5) Following the final FEC, dogs were dewormed with a commercial anthelmintic and feces were collected for 48 hours. Fecal output from each dog was soaked in water for a minimum of 30 minutes and processing through 250 μm, 150 μm and 38 μm sieves to recover expelled adult and immature hookworms. Expelled hookworms were preserved in fixative (5% formalin) and counted.
Cohort A was designed to evaluate effectiveness against patent adult hookworm infections present at the time of treatment with the compound of Example 9.

Ancylostoma caninum [5] = assay: Assay 3: residual efficacy against hookworm infection in dogs (cohorts B and C); type: in vivo; conditions: for % Reduction of Mean Fecal Egg Count / % Reduction of Mean Number of Recovered Hookworms: vs control; for Mean Number of Recovered Hookworms: after final FEC
Protocol: as §1, §2, §3, §4, §5

[6] = cohort B, 30 mg/kg subcutaneous 30 days prior to infection, 15 days after infection
[7] = cohort B, 30 mg/kg subcutaneous 30 days prior to infection, 20 days after infection
[8] = cohort B, 30 mg/kg subcutaneous 30 days prior to infection, 25 days after infection
[9] = cohort B, 30 mg/kg subcutaneous 30 days prior to infection, 30 days after infection
[10] = cohort B, 30 mg/kg subcutaneous 30 days prior to infection
[11] = cohort C, 30 mg/kg subcutaneous 60 days prior to infection, 15 days after infection
[12] = cohort C, 30 mg/kg subcutaneous 60 days prior to infection, 20 days after infection
[13] = cohort C, 30 mg/kg subcutaneous 60 days prior to infection, 25 days after infection
[14] = cohort C, 30 mg/kg subcutaneous 60 days prior to infection, 30 days after infection
[15] = cohort C, 30 mg/kg subcutaneous 60 days prior to infection

## CCc1c(C(=O)N[C@H]2CCOc3ccccc32)cnc2c(-c3cc(F)cc(F)c3F)c(F)ccc12 [Example 1, N-[(4S)-3,4-Dihydro-2H-chromen-4-yl]-4-ethyl-7-fluoro-8-(2,3,5-trifluorophenyl)quinoline-3-carboxamide]
[1]; plasma
  clearance: 10 mL/min/kg
  half-life: 52 h

## Cc1nn2c(C(C)C)c(C(=O)N[C@H]3CCc4ccccc43)cnc2c1-c1cc(Cl)c(F)c(Cl)c1 [Example 2, (S)-3-(3,5-dichloro-4-fluorophenyl)-N-(2,3-dihydro-1H-inden-1-yl)-7-isopropyl-2-methylpyrazolo[1,5-a]pyrimidine-6-carboxamide]
[1]; plasma
  clearance: 2.33 mL/min/kg
  half-life: 19 h

## Cc1nn2c(C(C)C)c(C(=O)N[C@H]3CCOc4ccccc43)cnc2c1-c1ccc(F)c(F)c1 [Example 3, (S)—N-(chroman-4-yl)-3-(3,4-difluorophenyl)-7-isopropyl-2-methylpyrazolo[1,5-a]pyrimidine-6-carboxamide]
[1]; plasma
  clearance: 3 mL/min/kg
  half-life: 37.4 h

## O=C(N[C@H]1CCOc2ccccc21)c1cnc2c(-c3cc(Cl)cc(Cl)c3)c(F)ccc2c1N1CC(F)C1 [Example 5, (S)—N-(chroman-4-yl)-8-(3,5-dichlorophenyl)-7-fluoro-4-(3-fluoroazetidin-1-yl)quinoline-3-carboxamide]
[1]; plasma
  clearance: 1.17 mL/min/kg
  half-life: 160 h

## O=C(N[C@H]1CCOc2ccccc21)c1cnc2c(-c3cc(F)cc(F)c3F)c(F)ccc2c1C1CS(=O)(=O)C1 [Example 8, N-[(4S)-3,4-dihydro-2H-chromen-4-yl]-4-(1,1-dioxidothietan-3-yl)-7-fluoro-8-(2,3,5-trifluorophenyl)quinoline-3-carboxamide]
[1]; plasma
  clearance: 11.5 mL/min/kg
  half-life: 43.6 h

## O=C(N[C@H]1CCOc2ccccc21)c1cnc2c(-c3cc(F)cc(F)c3F)c(F)ccc2c1[C@H]1C[C@H](F)C1 [Example 9, N—((S)-chroman-4-yl)-7-fluoro-4-((1R,3S)-3-fluorocyclobutyl)-8-(2,3,5-trifluorophenyl)quinoline-3-carboxamide]
Dirofilaria immitis [2]; 30 mg/kg subcutaneous 90 days after infection, 150, 180 and 210 days after infection
  dogs with positive test results in the modified Knott and heartworm antigen tests: None of the dogs
Dirofilaria immitis [2]; dogs, 30 mg/kg subcutaneous, administered 90 days after experimental infection
  effectiveness at preventing the development of patent adult heartworm: 100%
Dirofilaria immitis [3]; 30 mg/kg subcutaneous 90 days before second infection, 149 days after second infection
  dogs with a positive heartworm antigen test result: 50%
Dirofilaria immitis [3]; dogs, 30 mg/kg subcutaneous prior to second infection
  residual protection from infection with Dirofilaria immitis: significant residual protection
Dirofilaria immitis [3]; dogs, 30 mg/kg subcutaneous prior to second infection, necropsy approx. 5 months after infection, all dogs
  reduction in worm burden in the heart and lungs relative to the negative control group: > 80%
Ancylostoma caninum [4]
  Fecal egg count reduction upon treatment: > 90%
Ancylostoma caninum [4]; 15 days after infection
  Mean Fecal Egg Count: 0 EPG
Ancylostoma caninum [4]; 15 days after infection, vs control
  % Reduction of Mean Fecal Egg Count: 100%
Ancylostoma caninum [4]; 20 days after infection
  Mean Fecal Egg Count: 0 EPG
Ancylostoma caninum [4]; 20 days after infection, vs control
  % Reduction of Mean Fecal Egg Count: 100%
Ancylostoma caninum [4]; 25 days after infection
  Mean Fecal Egg Count: 25 EPG
Ancylostoma caninum [4]; 25 days after infection, vs control
  % Reduction of Mean Fecal Egg Count: 93.75%
Ancylostoma caninum [4]; 30 days after infection
  Mean Fecal Egg Count: 0 EPG
Ancylostoma caninum [4]; 30 days after infection, vs control
  % Reduction of Mean Fecal Egg Count: 100%
Ancylostoma caninum [4]; after final FEC
  Mean Number of Recovered Hookworms: 0.0
Ancylostoma caninum [4]; vs control
  % Reduction of Mean Number of Recovered Hookworms: 100%
Ancylostoma caninum [5]; [6]
  Mean Fecal Egg Count: 0 EPG
  % Reduction of Mean Fecal Egg Count: 100%
Ancylostoma caninum [5]; [7]
  Mean Fecal Egg Count: 0 EPG
  % Reduction of Mean Fecal Egg Count: 100%
Ancylostoma caninum [5]; [8]
  Mean Fecal Egg Count: 0 EPG
  % Reduction of Mean Fecal Egg Count: 100%
Ancylostoma caninum [5]; [9]
  Mean Fecal Egg Count: 0 EPG
  % Reduction of Mean Fecal Egg Count: 100%
Ancylostoma caninum [5]; [10]
  Mean Number of Recovered Hookworms: 0
  % Reduction of Mean Number of Recovered Hookworms: 100%
Ancylostoma caninum [5]; [11]
  Mean Fecal Egg Count: 0 EPG
  % Reduction of Mean Fecal Egg Count: 100%
Ancylostoma caninum [5]; [12]
  Mean Fecal Egg Count: 0 EPG
  % Reduction of Mean Fecal Egg Count: 100%
Ancylostoma caninum [5]; [13]
  Mean Fecal Egg Count: 0 EPG
  % Reduction of Mean Fecal Egg Count: 100%
Ancylostoma caninum [5]; [14]
  Mean Fecal Egg Count: 0 EPG
  % Reduction of Mean Fecal Egg Count: 100%
Ancylostoma caninum [5]; [15]
  Mean Number of Recovered Hookworms: 0
  % Reduction of Mean Number of Recovered Hookworms: 100%
Ancylostoma caninum [5]; cohorts B and C, 30 mg/kg subcutaneous
  duration of 100% protection from infections with hookworm larvae: at least 60 days
Ancylostoma caninum [5]; cohorts B and C, 30 mg/kg subcutaneous, FECs and expelled worm counts, for at least 60 days
  protection from infections with hookworm larvae: 100%
[1]; plasma
  clearance: 1.17 mL/min/kg
  half-life: 190 h

## Cc1nn2c(C(C)C)c(C(=O)N[C@H]3CCOc4ccccc43)cnc2c1-c1c(F)cccc1Cl [Example 10, (S)-3-(2-chloro-6-fluorophenyl)-N-(chroman-4-yl)-7-isopropyl-2-methylpyrazolo[1,5-a]pyrimidine-6-carboxamide]
[1]; plasma
  clearance: 6.17 mL/min/kg
  half-life: 24.7 h

## O=C(N[C@H]1CCOc2ccccc21)c1cnc2c(-c3cc(F)cc(F)c3F)cccc2c1C1COC1 [Example 11, (S)—N-(chroman-4-yl)-4-(oxetan-3-yl)-8-(2,3,5-trifluorophenyl)quinoline-3-carboxamide]
[1]; plasma
  clearance: 5 mL/min/kg
  half-life: 47.8 h

## O=C(N[C@H]1CCOc2ccccc21)c1cnc2c(-c3cc(F)cc(F)c3F)cccc2c1C1CCOCC1 [Example 12, N-[(4S)-3,4-Dihydro-2H-chromen-4-yl]-4-(tetrahydro-2H-pyran-4-yl)-8-(2,3,5-trifluorophenyl)quinoline-3-carboxamide]
[1]; plasma
  clearance: 17 mL/min/kg
  half-life: 21.4 h

## O=C(N[C@H]1CCOc2ccccc21)c1cnc2c(-c3cc(F)cc(F)c3F)c(F)ccc2c1C1CCOCC1 [Example 14]
[1]; plasma
  clearance: 3 mL/min/kg
  half-life: 43.4 h

## (S)—N-(2,3-Dihydro-1H-inden-1-yl)-3-(3-fluorophenyl)-7-isopropyl-2-methylpyrazolo[1,5-a]pyrimidine-6-carboxamide [Example 13]
[1]
  Plasma Clearance, geometric mean: 9.33 mL/min/kg
[1]; plasma
  Half-life (h/Form) iv, geometric mean: 45.43 h
